{"source": "PubChem BioAssay (NCI)", "note": "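Dose response: 5 concentrations. Exposure: 48 h. Format: 96-well plates. Endpoint: linear interpolation; highest concentration if not reached. GI50: concentration for 50% inhibition of growth. TGI denotes the concentration required for complete inhibition of growth.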", "data": [{"tested_on": "SF-295 CNS", "assay": "NCI-60 cell line screen, 48 h", "units": {"TGI": "µM"}, "values": [{"compound": "COC(COC(=O)N1CCN(C=O)CC1)C1=C(N2CC2)C(=O)C(C)=C(N2CC2)C1=O", "note": "(stereo unspecified)", "TGI": 4.55}]}, {"tested_on": "SN12C renal", "assay": "NCI-60 cell line screen, 48 h", "units": {"GI50": "µM", "TGI": "µM"}, "values": [{"compound": "CCN(CC)CCOc1ccc(/C(=C(\\C)c2ccc(F)c(OC)c2)c2ccc(Cl)cc2)cc1", "GI50": 2.38, "TGI": 4.64}, {"compound": "Cc1[nH]n(-c2cccc(Cl)c2)c(=O)c1/C=C1\\C=Nc2ccc(Br)cc21", "GI50": 2.88, "TGI": 11.9}, {"compound": "COC(COC(=O)N1CCN(C=O)CC1)C1=C(N2CC2)C(=O)C(C)=C(N2CC2)C1=O", "note": "(stereo unspecified)", "TGI": 1.14}, {"compound": "O=C(CCCN1CC=C(n2c(=O)[nH]c3ccccc32)CC1)c1ccc(F)cc1", "GI50": 96.2, "TGI": "> 100"}]}, {"tested_on": "COLO 205 colon", "assay": "NCI-60 cell line screen, 48 h", "units": {"GI50": "µM", "TGI": "µM"}, "values": [{"compound": "CCN(CC)CCOc1ccc(/C(=C(\\C)c2ccc(F)c(OC)c2)c2ccc(Cl)cc2)cc1", "GI50": 1.82, "TGI": 4.51}, {"compound": "Cc1[nH]n(-c2cccc(Cl)c2)c(=O)c1/C=C1\\C=Nc2ccc(Br)cc21", "GI50": 2, "TGI": 4.29}, {"compound": "COC(COC(=O)N1CCN(C=O)CC1)C1=C(N2CC2)C(=O)C(C)=C(N2CC2)C1=O", "note": "(stereo unspecified)", "TGI": 0.897}, {"compound": "O=C(CCCN1CC=C(n2c(=O)[nH]c3ccccc32)CC1)c1ccc(F)cc1", "GI50": 25, "TGI": 75.5}]}, {"tested_on": "NCI-H460 lung", "assay": "NCI-60 cell line screen, 48 h", "units": {"GI50": "µM", "TGI": "µM"}, "values": [{"compound": "CCN(CC)CCOc1ccc(/C(=C(\\C)c2ccc(F)c(OC)c2)c2ccc(Cl)cc2)cc1", "GI50": 2.07, "TGI": 4.24}, {"compound": "Cc1[nH]n(-c2cccc(Cl)c2)c(=O)c1/C=C1\\C=Nc2ccc(Br)cc21", "GI50": 1.78, "TGI": 3.53}, {"compound": "COC(COC(=O)N1CCN(C=O)CC1)C1=C(N2CC2)C(=O)C(C)=C(N2CC2)C1=O", "note": "(stereo unspecified)", "TGI": 0.8}, {"compound": "O=C(CCCN1CC=C(n2c(=O)[nH]c3ccccc32)CC1)c1ccc(F)cc1", "GI50": 35.2, "TGI": "> 100"}]}, {"tested_on": "UACC-257 melanoma", "assay": "NCI-60 cell line screen, 48 h", "units": {"GI50": "µM", "TGI": "µM"}, "values": [{"compound": "CCN(CC)CCOc1ccc(/C(=C(\\C)c2ccc(F)c(OC)c2)c2ccc(Cl)cc2)cc1", "GI50": 2.18, "TGI": 4.67}, {"compound": "Cc1[nH]n(-c2cccc(Cl)c2)c(=O)c1/C=C1\\C=Nc2ccc(Br)cc21", "GI50": 85.7, "TGI": "> 100"}, {"compound": "COC(COC(=O)N1CCN(C=O)CC1)C1=C(N2CC2)C(=O)C(C)=C(N2CC2)C1=O", "note": "(stereo unspecified)", "TGI": 1.9}, {"compound": "O=C(CCCN1CC=C(n2c(=O)[nH]c3ccccc32)CC1)c1ccc(F)cc1", "GI50": 60.2, "TGI": "> 100"}]}, {"tested_on": "SW-620 colon", "assay": "NCI-60 cell line screen, 48 h", "units": {"GI50": "µM", "TGI": "µM"}, "values": [{"compound": "CCN(CC)CCOc1ccc(/C(=C(\\C)c2ccc(F)c(OC)c2)c2ccc(Cl)cc2)cc1", "GI50": 2.12, "TGI": 4.28}, {"compound": "Cc1[nH]n(-c2cccc(Cl)c2)c(=O)c1/C=C1\\C=Nc2ccc(Br)cc21", "GI50": 3.58, "TGI": "> 100"}, {"compound": "COC(COC(=O)N1CCN(C=O)CC1)C1=C(N2CC2)C(=O)C(C)=C(N2CC2)C1=O", "note": "(stereo unspecified)", "TGI": 1.59}, {"compound": "O=C(CCCN1CC=C(n2c(=O)[nH]c3ccccc32)CC1)c1ccc(F)cc1", "GI50": 53.5, "TGI": "> 100"}]}, {"tested_on": "HL-60(TB) leukemia", "assay": "NCI-60 cell line screen, 48 h", "units": {"GI50": "µM", "TGI": "µM"}, "values": [{"compound": "CCN(CC)CCOc1ccc(/C(=C(\\C)c2ccc(F)c(OC)c2)c2ccc(Cl)cc2)cc1", "GI50": 2.69, "TGI": 6.43}, {"compound": "Cc1[nH]n(-c2cccc(Cl)c2)c(=O)c1/C=C1\\C=Nc2ccc(Br)cc21", "GI50": 4.02, "TGI": 33.6}, {"compound": "O=C(CCCN1CC=C(n2c(=O)[nH]c3ccccc32)CC1)c1ccc(F)cc1", "GI50": 24.3, "TGI": 67.4}]}, {"tested_on": "A549 NSCLC", "assay": "NCI-60 cell line screen, 48 h", "units": {"GI50": "µM", "TGI": "µM"}, "values": [{"compound": "CCN(CC)CCOc1ccc(/C(=C(\\C)c2ccc(F)c(OC)c2)c2ccc(Cl)cc2)cc1", "GI50": 2.61, "TGI": 5.63}, {"compound": "Cc1[nH]n(-c2cccc(Cl)c2)c(=O)c1/C=C1\\C=Nc2ccc(Br)cc21", "GI50": 2.27, "TGI": 5.68}, {"compound": "COC(COC(=O)N1CCN(C=O)CC1)C1=C(N2CC2)C(=O)C(C)=C(N2CC2)C1=O", "note": "(stereo unspecified)", "TGI": 2.71}, {"compound": "O=C(CCCN1CC=C(n2c(=O)[nH]c3ccccc32)CC1)c1ccc(F)cc1", "GI50": 70.2, "TGI": "> 100"}]}, {"tested_on": "NCI-H522 lung", "assay": "NCI-60 cell line screen, 48 h", "units": {"GI50": "µM", "TGI": "µM"}, "values": [{"compound": "CCN(CC)CCOc1ccc(/C(=C(\\C)c2ccc(F)c(OC)c2)c2ccc(Cl)cc2)cc1", "GI50": 2.73, "TGI": 5.79}, {"compound": "Cc1[nH]n(-c2cccc(Cl)c2)c(=O)c1/C=C1\\C=Nc2ccc(Br)cc21", "GI50": 3.67, "TGI": 17.5}, {"compound": "COC(COC(=O)N1CCN(C=O)CC1)C1=C(N2CC2)C(=O)C(C)=C(N2CC2)C1=O", "note": "(stereo unspecified)", "TGI": 0.26}, {"compound": "O=C(CCCN1CC=C(n2c(=O)[nH]c3ccccc32)CC1)c1ccc(F)cc1", "GI50": 65.1, "TGI": "> 100"}]}, {"tested_on": "SK-MEL-28 melanoma", "assay": "NCI-60 cell line screen, 48 h", "units": {"GI50": "µM", "TGI": "µM"}, "values": [{"compound": "CCN(CC)CCOc1ccc(/C(=C(\\C)c2ccc(F)c(OC)c2)c2ccc(Cl)cc2)cc1", "GI50": 2.44, "TGI": 4.71}, {"compound": "Cc1[nH]n(-c2cccc(Cl)c2)c(=O)c1/C=C1\\C=Nc2ccc(Br)cc21", "GI50": 19.6, "TGI": "> 100"}, {"compound": "COC(COC(=O)N1CCN(C=O)CC1)C1=C(N2CC2)C(=O)C(C)=C(N2CC2)C1=O", "note": "(stereo unspecified)", "TGI": 3.33}, {"compound": "O=C(CCCN1CC=C(n2c(=O)[nH]c3ccccc32)CC1)c1ccc(F)cc1", "GI50": 52.6, "TGI": "> 100"}]}, {"tested_on": "786-0 renal", "assay": "NCI-60 cell line screen, 48 h", "units": {"GI50": "µM", "TGI": "µM"}, "values": [{"compound": "CCN(CC)CCOc1ccc(/C(=C(\\C)c2ccc(F)c(OC)c2)c2ccc(Cl)cc2)cc1", "GI50": 2.7, "TGI": 5.11}, {"compound": "Cc1[nH]n(-c2cccc(Cl)c2)c(=O)c1/C=C1\\C=Nc2ccc(Br)cc21", "GI50": 2.14, "TGI": 4.68}, {"compound": "COC(COC(=O)N1CCN(C=O)CC1)C1=C(N2CC2)C(=O)C(C)=C(N2CC2)C1=O", "note": "(stereo unspecified)", "TGI": 0.43}, {"compound": "O=C(CCCN1CC=C(n2c(=O)[nH]c3ccccc32)CC1)c1ccc(F)cc1", "GI50": 29.3, "TGI": "> 100"}]}, {"tested_on": "NCI/ADR-RES ovarian", "assay": "NCI-60 cell line screen, 48 h", "units": {"GI50": "µM", "TGI": "µM"}, "values": [{"compound": "CCN(CC)CCOc1ccc(/C(=C(\\C)c2ccc(F)c(OC)c2)c2ccc(Cl)cc2)cc1", "GI50": 2.36, "TGI": 4.69}, {"compound": "Cc1[nH]n(-c2cccc(Cl)c2)c(=O)c1/C=C1\\C=Nc2ccc(Br)cc21", "GI50": 3.4, "TGI": 16}, {"compound": "COC(COC(=O)N1CCN(C=O)CC1)C1=C(N2CC2)C(=O)C(C)=C(N2CC2)C1=O", "note": "(stereo unspecified)", "TGI": 31.9}, {"compound": "O=C(CCCN1CC=C(n2c(=O)[nH]c3ccccc32)CC1)c1ccc(F)cc1", "GI50": 22.9, "TGI": "> 100"}]}, {"tested_on": "MALME-3M melanoma", "assay": "NCI-60 cell line screen, 48 h", "units": {"GI50": "µM", "TGI": "µM"}, "values": [{"compound": "CCN(CC)CCOc1ccc(/C(=C(\\C)c2ccc(F)c(OC)c2)c2ccc(Cl)cc2)cc1", "GI50": 2.09, "TGI": 4.7}, {"compound": "Cc1[nH]n(-c2cccc(Cl)c2)c(=O)c1/C=C1\\C=Nc2ccc(Br)cc21", "GI50": 3.15, "TGI": 13.1}, {"compound": "COC(COC(=O)N1CCN(C=O)CC1)C1=C(N2CC2)C(=O)C(C)=C(N2CC2)C1=O", "note": "(stereo unspecified)", "TGI": 1.53}, {"compound": "O=C(CCCN1CC=C(n2c(=O)[nH]c3ccccc32)CC1)c1ccc(F)cc1", "GI50": 38.9, "TGI": "> 100"}]}, {"tested_on": "HOP-92 NSCLC", "assay": "NCI-60 cell line screen, 48 h", "units": {"GI50": "µM", "TGI": "µM"}, "values": [{"compound": "CCN(CC)CCOc1ccc(/C(=C(\\C)c2ccc(F)c(OC)c2)c2ccc(Cl)cc2)cc1", "GI50": 1.3, "TGI": 3.68}, {"compound": "COC(COC(=O)N1CCN(C=O)CC1)C1=C(N2CC2)C(=O)C(C)=C(N2CC2)C1=O", "note": "(stereo unspecified)", "TGI": 0.919}, {"compound": "O=C(CCCN1CC=C(n2c(=O)[nH]c3ccccc32)CC1)c1ccc(F)cc1", "GI50": 45.3, "TGI": "> 100"}]}, {"tested_on": "SR leukemia", "assay": "NCI-60 cell line screen, 48 h", "units": {"GI50": "µM", "TGI": "µM"}, "values": [{"compound": "CCN(CC)CCOc1ccc(/C(=C(\\C)c2ccc(F)c(OC)c2)c2ccc(Cl)cc2)cc1", "GI50": 2.01, "TGI": 6.91}, {"compound": "Cc1[nH]n(-c2cccc(Cl)c2)c(=O)c1/C=C1\\C=Nc2ccc(Br)cc21", "GI50": 1.88, "TGI": 3.99}, {"compound": "COC(COC(=O)N1CCN(C=O)CC1)C1=C(N2CC2)C(=O)C(C)=C(N2CC2)C1=O", "note": "(stereo unspecified)", "TGI": "< 0.011"}, {"compound": "O=C(CCCN1CC=C(n2c(=O)[nH]c3ccccc32)CC1)c1ccc(F)cc1", "GI50": 29.6, "TGI": 89.1}]}]}
